Experiments:
rice = settings: depending on the plant breeding; cited from earlier work
cabbage = settings: cited from earlier work
radish = settings: cited from earlier work
corn = assay: Effect on growth of corn; assay type: in vivo; settings: for Early plant height / Fresh weight / Tiller number: corn seeds immersed 2 hrs at 100 ppm, after 60 days; for Rate of increase of early plant height / Rate of increase of fresh weight / Rate of increase of tiller number: corn, 100 ppm, vs control
Protocol: [Worded in the source for another target; used here, by the source, with some conditions changed.] (§1) Then, the treated seeds were dried for 24 hrs at 25° C. Round pots of 25 cm in diameter (7 L capacity) were filled with soil for horticulture, and 50 pots (2 seeds per pot) were sown. After 60 days at about 25° C., the crop growth was evaluated by rate of emergence and early plant height. […] As a control, bean seeds which were not immersed in the polyprenol preparation were used.

bean = assay: Effect on growth of bean; assay type: in vivo
Protocol: (§2) 100 g of bean seeds were immersed in a 100 ml solution containing the polyprenol preparation formulated in Example 3 at a concentration of 100 ppm, for 1 hr. Then, the treated seeds were dried for 24 hrs at 25° C. Round pots of 25 cm in diameter (7 L capacity) were filled with soil for horticulture, and 50 pots (2 seeds per pot) were sown. After 60 days at about 25° C., the crop growth was evaluated by rate of emergence and early plant height. The test was repeated 3 times, and the average values are represented in Table 7. As a control, bean seeds which were not immersed in the polyprenol preparation were used.
In example 4, the compound having chloride group instead of hydroxyl group can be synthesized. The compound was evaluated on effect on crop growth. 100 g of bean seeds were immersed in a 100 ml solution containing the polyprenol preparation formulated in Example 4 at a concentration of 100 ppm, for 1 hr. Then, the treated seeds were dried for 24 hrs. Round pots of 25 cm in diameter (7 L capacity) were filled with soil for horticulture, and 50 pots (2 seeds per pot) were sown. After 60 days, the crop growth was evaluated. The test was repeated 3 times, and the average values are represented in Table 14. As a control, bean seeds which were not immersed in the polyprenol preparation were used.
as §2, with “Example 5” for “Example 3”, “24 hrs.” for “24 hrs at 25° C.”, “60 days,” for “60 days at about 25° C.,”, “was evaluated.” for “was evaluated by rate of emergence and early plant height.”, “Table 16.” for “Table 7.”

red pepper = assay: Effect on growth of red pepper; assay type: in vivo; settings: 100 ppm
Protocol: [Worded in the source for another target; used here, by the source, with some conditions changed.] as §1

[1] = bean seeds immersed 1 hr at 100 ppm, after 60 days
[2] = foliage treatment after growing for 20 days

Compound	Early plant height (corn)	Fresh weight (corn)	Tiller number (corn)	Rate of increase of early plant height (corn)	Rate of increase of fresh weight (corn)	Rate of increase of tiller number (corn)	also measured
CCCCCCCCCCCCCCCCCCCCCCCCCCCCCCO [tricontanol]							Increase of yield (rice): 14.8-41%; Increase of yield (cabbage): 83%; Increase of yield (radish): 108.4%
Polyprenyl Methyl Sulfide [Example 6-5]	108.9 cm	65.7 g	8.5	0.2%	26.3%	3.6%	
polyprenyl ethyl carbonate [Example 6-6]	109.6 cm	61.3 g	8.4	0.9%	17.8%	2.4%	
Polyprenyl Methyl Ether [Example 6-4]	110.1 cm	60.3 g	8.7	1.3%	15.9%	6.0%	
Polyprenyl Stearate [Example 6-3]	109.1 cm	68.0 g	8.6	0.4%	30.7%	4.8%	
Polyprenol of Formula I, in which m is 18 [Example 4]							Early plant height (bean; [1]): 68.2 cm; No. of pods (bean; [1]): 35.4; Rate of emergence (bean; [1]): 55.7%; Increase of all factors tested (early plant height, rate of emergence, pod number) (bean; bean, 100 ppm, summary statement): more than 7%; Rate of increase of No. of pods (bean; bean, 100 ppm, vs control): 17.2%; Rate of increase of early plant height (bean; bean, 100 ppm, vs control): 7.74%; Rate of increase of rate of emergence (bean; bean, 100 ppm, vs control): 7.32%; Early plant length (red pepper; [2]): 70.5 cm; Flower number (red pepper; [2]): 8.4; Trunk diameter (red pepper; [2]): 8.5 mm; Rate of increase of early plant length (red pepper; vs control): 11.7%; Rate of increase of flower number (red pepper; vs control): 10.5%; Rate of increase of trunk diameter (red pepper; vs control): 1.2%
polyprepyl dimethyl sulfonium bromide [Example 6-7]	109.5 cm	70.1 g	9.2	0.8%	34.8%	12.1%	
